The record followed here is patent US11458180B2, “Environmentally-friendly preparation method of composition containing anti-inflammatory active ingredients and use of composition” (SHANGHAI JAKA BIOTECH CO., LTD., priority 2019, dated 2022).

For this experiment, the system named is PGE-2. The experiment in a line: Anti-inflammatory effect: LPS-induced PGE-2 expression by ELISA. The format is cell-based, mouse. To be noted: LPS 1 μg/ml stimulated Raw 264.7 cells, 10 μM, relative to LPS group. The method, then:
In this experiment, Raw 264.7 cells were stimulated by LPS, then cell culture was collected, and the expression of the inflammatory factor PGE-2 was determined by enzyme-linked immunosorbent assay (ELISA). The compositions obtained in the examples and comparative examples were compared in terms of the influence on anti-inflammatory effects. Raw264.7 cells and LPS were used for the experiment.
Raw264.7 cells at logarithmic growth phase were collected as follows: culture medium was discarded, and the cells were washed twice with PBS, added with 0.25% trypsin, and placed at 37° C. for 5 min; digestion was terminated with DMEM complete culture medium including 10% FBS and 1% PS, and a resulting solution was centrifuged at 1,000 rpm for 3 min; and a resulting supernatant was discarded, and obtained cells were resuspended in complete culture medium and counted. A cell concentration was adjusted to 5×10^5 cells/ml, and a resulting cell suspension was added to a 96-well plate at 100 µl/well. […]
After the treatment, cell culture was collected to a new 96-well plate, and the expression of PGE-2 was determined by ELISA according to instructions of a kit. A PGE-2 content (E) was calculated according to a standard curve, and relative to the LPS group, a relative inhibition rate was calculated for each sample (inhibition rate (%)=(1-Etest substance group/ELPS group)×100).
(In general: In an ELISA, binding on a coated surface is turned into a signal by an enzyme label.)

Regarding `C[C@@H]1C[C@H]2[C@@H]3CCC4=CC(=O)C=C[C@]4(C)[C@@]3(F)[C@@H](O)C[C@]2(C)[C@@]1(O)C(=O)CO` [Dex, dexamethasone], the “inhibition rate of PGE-2 expression” value is reported as 75.27%.
